Results published in US9226911B2, “Method of reducing weight using composition containing fucoxanthin extract” (BEIJING GINGKO GROUP BIOLOGICAL TECHNOLOGY CO., LTD., priority 2009, dated 2016).
Marks after values point to notes of the source that are not given here.

How the values were obtained:
[1] = test system: model rats with alimentary obesity; experiment: Example 7: fat pads around the kidneys in model rats with alimentary obesity; type: in vivo, SD rats; conditions: x ± s; 30 d; A 181.23 μg, B 398.7 μg, C 1.81 mg
Description: (§1) Test substances: Formulations are prepared according to the ratios shown in Table 4 Formulations for feeding animals: high-fat feed is composed of 80% basic feed, 10% lard and 10% yolk powder.
(§2) Grouping and treatment of the test animals: 80 grown-up male healthy SD clean grade rats (body weight 180-210 g) are adaptively fed with basic feed for a week, 10 are used as basic feed control, the rest are fed with high-fat feed. A month later, the group of rats fed with high-fat feed is randomly grouped into 7 groups according to their weights, 10 in each group: model control, fucoxanthin (A), tocotrienols(B), fucoidan(C), composition A+B+C, composition A+B and composition A+C. The group of basic feed keeps on feeding with basic feed, the rest groups are fed with high-fat feeds. The groups of basic feed and model control are intragastrically administrated with distilled water, the rest groups are intragastrically administrated with tested medicines, all administrated for 30 d. The groups of animals are raised in different cages in rooms with the temperature conditioned at (22±2) ° C. and under natural illumination. The rats take food and water freely. Each week, their body weights are measured and the amounts of food they take are observed and recorded. They are weighted after feeding for 30 d.
(§3) Statistical analysis: the variance from the data collected in this experiment is analyzed with SAS package, Dunnett's t test is used to compare statistically the results from different groups, the results of P<0.05 is decided as statistically significant.
The procedure was the same as in Example 4. After feeding for 30 d and weighing, executing all the rats, the fat pads around the kidneys were taken out and weighed accurately. Statistical analysis was carried out as in Example 4.

[2] = test system: model rats with alimentary obesity; experiment: Example 6: fat pads around the testicles in model rats with alimentary obesity; type: in vivo, SD rats; conditions: x ± s, 30 days, A 362.5 μg, B 18.12 μg, C 9.06 mg
Description: as §1, §2, §3
The procedure was the same as in Example 4. After feeding for 30 days and weighing, executing all the rats, the fat pads around the testicles were peeled off and weighed accurately. Statistical analysis was carried out as in Example 4.

[3] = test system: model rats with alimentary obesity; experiment: Example 5: abdomen fat in model rats with alimentary obesity; type: in vivo, SD rats; conditions: x ± s, 30 d, A 9.06 μg, B 36.25 μg, C 18.12 mg (A + B: A 36.25 μg [sic])
Description: as §1, §2, §3
The procedure was the same as in Example 4. After feeding for 30 d and weighing, executing all the rats, the abdomen fat was peeled off and weighed accurately. Statistical analysis was carried out as in Example 4

[4] = test system: model rats with alimentary obesity; experiment: Example 4: body weight of rats with high-fat-feed alimentary obesity, 30 d intragastric administration; type: in vivo, SD rats; conditions: x ± s; for Body weight (g) (after experiment): after 30 d intragastric; for Body weight (g) (before experiment): baseline after 1 month high-fat feed, 10 rats per group
Description: as §1, §2, §3

test subjects = experiment: Example 8: clinic intake trial, body weight and abdomen fat areas by CT; type: in vivo, human
Text: To examine the weight reducing effect of fucoxanthin composition by means of random control method, 20 eligible test subjects of the age of 20 to 50 were divided into 5 groups, A+B+C, A+C, A+B, A, B+C, with random figure table method. The number of the subjects in each group was n=4. The daily doses of the medicines taken by the subjects were according to Table 12. Apart from being administrated with each of the different tested medicines at the breakfast time according to the set way of taking the medicine, other normal life style and dietetic habit of the subjects were not changed. No low-calorie food recipe was required, no restriction to the food and drink was executed and no extra physical training was carried out. To examining the effect of sampling of the medicine, the subjects were respectively examined before sampling of the medicine and 1 month, 2 and 3 months after the sampling. That is, the bodyweight, waist- and hiplines, blood sugar and blood fat were measured, abdomen CT scanning was carried out and so on. The subjects were periodically followed-up to find out the experiences and to supervise and guarantee compliance of the customers in taking the medicine. For the test, those suffered from serious metabolic diseases that need medicinal control and those taken other weight reducing products had been excluded.
Abdomen fat areas were measured with CT • Instrument: CT Model Pronto; Hitachi, Japan. • 120 kV, 175 mA • Layer thickness of the scanning: 10 mm • Scanning in the umbilical cross-section • Attenuation of the adipose tissue: −250˜−50 HU (CT Unit) • Calculation of the fat areas: total abdomen fat, visceral- and subcutaneous fat (mm^2)
Using CT Scanning, total fat—as well as visceral fat areas were marked out across the umbilical cross-section, the areas were measured respectively, the area of subcutaneous fat was obtained as the difference of both areas.

[5] = per rat A 36.25 μg, B 36.25 μg, C 0.4 mg
[6] = over 30 d intragastric, per rat A 36.25 μg, B 36.25 μg, C 0.4 mg
[7] = n = 4, after vs before, daily dose A 2 mg, B 2 mg, C 22 mg
[8] = x ± s, n = 4, CT, oral daily dose A 2 mg, B 2 mg, C 22 mg

What does the source list for fucoidan?
Body weight (g) (after experiments) [1]: 546.59 ± 18.64 g; Total weight of fat pads around the kidneys [1]: 9.29 ± 0.61 g; Total weight of fat pads around the kidneys/body weight [1]: 1.70 ± 0.13; Body weight (g) (after experiments) [2]: 546.59 ± 18.64 g; Fat pad weight around the testicles [2]: 9.11 ± 0.48 g; Fat pad weight around the testicles/body weight ([2]; in % (unit assumed)): 1.67 ± 0.13; Abdomen fat [3]: 12.99 ± 1.23 g; Body weight (g) (after experiment) [3]: 546.59 ± 18.64 g; Weight of abdomen fat/body weight ([3]; in % (unit assumed)): 2.38 ± 0.13; Body weight (g) (after experiment) [4, 5]: 546.59 ± 18.64 g; Body weight (g) (before experiment) [4]: 486.69 ± 21.12 g; Weight increased [4, 6]: 59.90 ± 18.11 g

fucoxanthin was tested. Which “Body weight (g) (after experiments)” value [1] did it give?
The value was 530.18 ± 20.32 g.

What about the “Total weight of fat pads around the kidneys (g)” value [1] of the same substance?
Its value is 7.42 ± 0.60Δ g.

What about the “Total weight of fat pads around the kidneys/body weight” value [1] of the same substance?
Its value is 1.42 ± 0.12Δ.

And the “Body weight (g) (after experiments)” value [2]?
Its value is 530.18 ± 20.32 g.

And the “Fat pad weight around the testicles (g)” value [2]?
Its value is 7.32 ± 0.83Δ g.

What about the “Fat pad weight around the testicles/body weight” value [2] of the same substance?
The value was 1.38 ± 0.11Δ.

What about the “Abdomen fat (g)” value [3] of the same substance?
The value was 9.58 ± 1.99Δ g.

What about the “Body weight (g) (after experiment)” value [3] of the same substance?
The value was 530.18 ± 20.32 g.

What about the “Weight of abdomen fat/body weight” value [3] of the same substance?
Its value is 1.81 ± 0.13Δ.

What about the “effects compared with B+C group” value (test subjects; clinic trial, P<0.05) of the same substance?
Its value is “more significant than B+C group”.

What about the “The area of subcutaneous fat, Decrease (%)” value (test subjects; [7]) of the same substance?
Its value is 6.10%.

What about the “The area of visceral fat, Decrease (%)” value (test subjects; [7]) of the same substance?
The value was 4.20%.

What about the “Total abdomen fat area, decrease” value (test subjects; [7]) of the same substance?
Its value is 5.68%.

And the “Body weight Change: decrease by” value (test subjects; n = 4, oral daily dose A 2 mg, B 2 mg, C 22 mg, after vs before)?
Its value is “by 1.5%”.

And the “The area of subcutaneous fat, Before clinic experiment” value (test subjects; x ± s, n = 4, CT, difference of total and visceral fat areas, baseline)?
Its value is 15514 ± 1192 mm^2.

And the “The area of subcutaneous fat, After clinic experiment” value (test subjects; x ± s, n = 4, CT, difference of total and visceral fat areas, daily dose A 2 mg, B 2 mg, C 22 mg)?
The value was 14568 ± 1225* mm^2.

And the “Total abdomen fat area, Before clinic experiment” value (test subjects; x ± s, n = 4, CT, umbilical cross-section, baseline)?
The value was 36555 ± 1645 mm^2.

What about the “The area of visceral fat, Before clinic experiment” value (test subjects; x ± s, n = 4, CT, baseline) of the same substance?
The value was 17380 ± 1185 mm^2.

What about the “The area of visceral fat, After clinic experiment” value (test subjects; [8]) of the same substance?
The value was 16650 ± 1484* mm^2.

What about the “Total abdomen fat area, After clinic experiment” value (test subjects; [8]) of the same substance?
Its value is 34479 ± 1475 mm^2.

What about the “Body weight, Before clinic experiment” value (test subjects; x ± s, n = 4, baseline) of the same substance?
Its value is 68.4 ± 0.13 kg.

What about the “Body weight, After clinic experiment” value (test subjects; x ± s, n = 4, oral daily dose A 2 mg, B 2 mg, C 22 mg) of the same substance?
The value was 67.37 ± 0.11 kg.

What about the “Body weight (g) (after experiment)” value [4, 5] of the same substance?
The value was 530.18 ± 20.32Δ g.

What about the “Body weight (g) (before experiment)” value [4] of the same substance?
The value was 486.50 ± 22.10 g.

What about the “Weight increased(g)” value [4, 6] of the same substance?
Its value is 43.68 ± 19.13Δ g.
